# Values of other authors as cited in patent US8097707B2, “Compositions and processes for preparing 13-deoxy-anthracyclines” (priority 2004, dated 2012).
# Conditions: test systems where doxorubicin is not metabolized appreciably to the 13-dihydro alcohol metabolite (doxorubicinol)
compound,measurement,value
COc1cccc2c1C(=O)c1c(O)c3c(c(O)c1C2=O)C[C@@](O)(C(=O)CO)C[C@@H]3O[C@H]1C[C@H](N)[C@H](O)[C@H](C)O1 [doxorubicin],cardiotoxic effects,no significant cardiotoxic effects
